From US20230159532A1, “PARATHYROID HORMONE (PTH) RECEPTOR ANTAGONISTS AND USES THEREOF” (Crinetics Pharmaceuticals, Inc., priority 2021, published 2023)

target: T1, human PTHR1 receptor (Homo sapiens, UniProt Q03431); test: Competitive antagonist binding assay for hPTH-R1 (radioactive competition binding, SPA beads); details: human PTHR1 membranes, [125I]-[Nle8,18,Tyr34]-PTH(1-34) 0.2 nM, 90 minutes at room temperature; read-out: hPTHR1 Ki
T1 construct: purchased Eurofins HTS030M
T1 sequence (Q03431 27-593): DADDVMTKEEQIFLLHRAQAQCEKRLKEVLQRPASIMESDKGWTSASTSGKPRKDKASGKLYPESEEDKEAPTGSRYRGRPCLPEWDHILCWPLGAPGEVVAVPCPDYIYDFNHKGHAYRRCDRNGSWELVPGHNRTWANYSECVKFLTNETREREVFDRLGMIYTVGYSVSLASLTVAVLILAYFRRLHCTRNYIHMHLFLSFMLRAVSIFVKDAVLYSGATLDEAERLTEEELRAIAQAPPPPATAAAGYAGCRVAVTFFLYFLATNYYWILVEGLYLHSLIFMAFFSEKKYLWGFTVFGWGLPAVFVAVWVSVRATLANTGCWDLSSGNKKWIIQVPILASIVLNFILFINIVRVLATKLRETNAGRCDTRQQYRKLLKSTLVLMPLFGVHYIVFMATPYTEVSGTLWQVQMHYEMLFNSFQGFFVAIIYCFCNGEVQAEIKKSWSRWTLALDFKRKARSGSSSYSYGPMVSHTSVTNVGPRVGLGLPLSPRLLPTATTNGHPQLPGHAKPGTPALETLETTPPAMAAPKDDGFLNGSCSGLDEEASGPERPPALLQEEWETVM
Method in brief: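 Displacement of 0.2 nM radioiodinated [Nle8,18,Tyr34]-PTH(1-34) from membrane-bound human PTHR1 measured by scintillation proximity after 90 min at room temperature. Compounds typically 0-10,000 nM final, pH 7.4 HEPES/Mg/Ca buffer with BSA and detergent. Ki calculated from competition data.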

How did the Ki turn out when `CCN1C(=O)N(c2c(F)cc(NCCNC[C@@H]3CCC(=O)N3)cc2F)c2cc(C#N)ccc2-c2cc(Cl)cnc21` [1-174, 4-chloro-10-(2,6-difluoro-4-{[2-({[(2S)-5-oxopyrrolidin-2-yl]methyl}amino)ethyl]amino}phenyl)-8-ethyl-9-oxo-6,8,10-triazatricyclo[9.4.0.0^2,7]pentadeca-1(11),2(7),3,5,12,14-hexaene-13-carbonitrile] was run?
The Ki was < 100 nM.

With `CCN1C(=O)N(c2c(F)cc(NCCNCCO)cc2F)c2cc(Cl)cc(F)c2-c2cc(F)cnc21` [1-95, 13-chloro-10-[2,6-difluoro-4-({2-[(2-hydroxyethyl)amino]ethyl}amino)phenyl]-8-ethyl-4,15-difluoro-6,8,10-triazatricyclo[9.4.0.0^2,7]pentadeca-1(11),2(7),3,5,12,14-hexaen-9-one] as the compound, how does the Ki read?
Its Ki is < 100 nM.

`CNCCNc1ccc(N2C(=O)N(C)c3ncccc3-c3ccc(Cl)cc32)cc1` [2-1, 13-chloro-8-methyl-10-(4-{[2-(methylamino)ethyl]amino}phenyl)-6,8,10-triazatricyclo[9.4.0.0^2,7]pentadeca-1(11),2(7),3,5,12,14-hexaen-9-one] was tested. Which Ki did it give?
The Ki was 100 to 1000 nM.

Which Ki does the source give for `CCN1C(=O)N(c2c(F)cc(N3CCC(NCCO)C3)cc2F)c2cc(C#N)ccc2-c2cc(Cl)cnc21` (stereo not shown) [1-182, 4-chloro-10-(2,6-difluoro-4-{3-[(2-hydroxyethyl)amino]pyrrolidin-1-yl}phenyl)-8-ethyl-9-oxo-6,8,10-triazatricyclo[9.4.0.0^2,7]pentadeca-1(11),2(7),3,5,12,14-hexaene-13-carbonitrile] here?
Its Ki is < 100 nM.

How did the Ki turn out when `CCN1C(=O)N(c2c(F)cc(NCCNCCN3CCOC3=O)cc2F)c2cc(C#N)ccc2-c2cc(Cl)cnc21` [1-191, 4-chloro-10-{2,6-difluoro-4-[(2-{[2-(2-oxo-1,3-oxazolidin-3-yl)ethyl]amino}ethyl)amino]phenyl}-8-ethyl-9-oxo-6,8,10-triazatricyclo[9.4.0.0^2,7]pentadeca-1(11),2(7),3,5,12,14-hexaene-13-carbonitrile] was run?
Its Ki is < 100 nM.

Which Ki does the source give for `CCN1C(=O)N(c2c(F)cc(NCCNCCN)cc2F)c2cc(C#N)ccc2-c2cc(Cl)cnc21` [1-131, 10-[4-({2-[(2-aminoethyl)amino]ethyl}amino)-2,6-difluorophenyl]-4-chloro-8-ethyl-9-oxo-6,8,10-triazatricyclo[9.4.0.0^2,7]pentadeca-1(11),2(7),3,5,12,14-hexaene-13-carbonitrile] here?
The Ki was < 100 nM.

For `CNCCNc1cc(F)c(N2C(=O)N(CC(F)(F)F)c3ncc(Cl)cc3-c3ccc(Cl)cc32)c(F)c1` [1-45, 4,13-dichloro-10-(2,6-difluoro-4-{[2-(methylamino)ethyl]amino}phenyl)-8-(2,2,2-trifluoroethyl)-6,8,10-triazatricyclo[9.4.0.0^2,7]pentadeca-1(11),2(7),3,5,12,14-hexaen-9-one], which Ki is on record?
The Ki was < 100 nM.

Which Ki does the source give for `CCN1C(=O)N(c2c(F)cc(NCCNC)cc2F)c2cc(C#N)ccc2-c2cc(F)ccc21` [3-19, 8-(2,6-difluoro-4-{[2-(methylamino)ethyl]amino}phenyl)-10-ethyl-14-fluoro-9-oxo-8,10-diazatricyclo[9.4.0.0^2,7]pentadeca-1(11),2(7),3,5,12,14-hexaene-5-carbonitrile] here?
The Ki was < 100 nM.

How did the Ki turn out when `CCN1C(=O)N(c2c(F)cc(NCCN)cc2F)c2cc(Cl)ccc2-c2cccnc21` [1-3, 10-{4-[(2-aminoethyl)amino]-2,6-difluorophenyl}-13-chloro-8-ethyl-6,8,10-triazatricyclo[9.4.0.0^2,7]pentadeca-1(11),2(7),3,5,12,14-hexaen-9-one] was run?
Its Ki is < 100 nM.

How did the Ki turn out when `CNCCNc1cc(F)c(N2C(=O)N(CCO)c3ncc(F)cc3-c3ccc(C#N)cc32)c(F)c1` [1-121, 10-(2,6-difluoro-4-{[2-(methylamino)ethyl]amino}phenyl)-4-fluoro-8-(2-hydroxyethyl)-9-oxo-6,8,10-triazatricyclo[9.4.0.0^2,7]pentadeca-1(11),2(7),3,5,12,14-hexaene-13-carbonitrile] was run?
The Ki was 100 to 1000 nM.

With `CCN1C(=O)N(c2c(F)cc(N3CC(CN)C3)cc2F)c2cc(C#N)ccc2-c2cc(F)cnc21` [1-123, 10-{4-[3-(aminomethyl)azetidin-1-yl]-2,6-difluorophenyl}-8-ethyl-4-fluoro-9-oxo-6,8,10-triazatricyclo[9.4.0.0^2,7]pentadeca-1(11),2(7),3,5,12,14-hexaene-13-carbonitrile] as the compound, how does the Ki read?
The Ki was < 100 nM.

For `CCN1C(=O)N(c2c(F)cc(NCCNC)cc2F)c2cc(Cl)ccc2-c2cccnc21` [1-2, 13-chloro-10-(2,6-difluoro-4-{[2-(methylamino)ethyl]amino}phenyl)-8-ethyl-6,8,10-triazatricyclo[9.4.0.0^2,7]pentadeca-1(11),2(7),3,5,12,14-hexaen-9-one], which Ki is on record?
Its Ki is < 100 nM.

How did the Ki turn out when `CCN1C(=O)N(c2c(F)cc(NCCNCCCC(=O)O)cc2F)c2cc(Cl)ccc2-c2cccnc21` [1-6, 4-({2-[(4-{13-chloro-8-ethyl-9-oxo-6,8,10-triazatricyclo[9.4.0.0^2,7]pentadeca-1(11),2(7),3,5,12,14-hexaen-10-yl}-3,5-difluorophenyl)amino]ethyl}amino)butanoic acid] was run?
Its Ki is < 100 nM.

`CCN1C(=O)N(c2c(F)cc(NCCNCCO)cc2F)c2cc(Cl)cnc2-c2cc(Cl)cnc21` [3-21, 5,14-dichloro-8-[2,6-difluoro-4-({2-[(2-hydroxyethyl)amino]ethyl}amino)phenyl]-10-ethyl-3,8,10,12-tetraazatricyclo[9.4.0.0^2,7]pentadeca-1(11),2(7),3,5,12,14-hexaen-9-one] was tested. Which Ki did it give?
Its Ki is < 100 nM.

`CCN1C(=O)N(c2c(F)cc(NCCNCCCC(=O)O)cc2F)c2c(ccc(Cl)c2F)-c2cc(Cl)cnc21` [3-11, 4-({2-[(4-{4,13-dichloro-8-ethyl-12-fluoro-9-oxo-6,8,10-triazatricyclo[9.4.0.0^2,7]pentadeca-1(11),2(7),3,5,12,14-hexaen-10-yl}-3,5-difluorophenyl)amino]ethyl}amino)butanoic acid] was tested. Which Ki did it give?
Its Ki is < 100 nM.

`CCN1C(=O)N(c2c(F)cc(NCCNCCO)cc2F)c2nc(C#N)ccc2-c2cc(F)cnc21` [3-14, 8-[2,6-difluoro-4-({2-[(2-hydroxyethyl)amino]ethyl}amino)phenyl]-10-ethyl-14-fluoro-9-oxo-6,8,10,12-tetraazatricyclo[9.4.0.0^2,7]pentadeca-1(11),2(7),3,5,12,14-hexaene-5-carbonitrile] was tested. Which Ki did it give?
Its Ki is < 100 nM.

How did the Ki turn out when `CCN1C(=O)N(c2c(F)cc(NC[C@H]3COCCN3)cc2F)c2cc(C#N)ccc2-c2cc(Cl)cnc21` [1-147, 4-chloro-10-[2,6-difluoro-4-({[(3S)-morpholin-3-yl]methyl}amino)phenyl]-8-ethyl-9-oxo-6,8,10-triazatricyclo[9.4.0.0^2,7]pentadeca-1(11),2(7),3,5,12,14-hexaene-13-carbonitrile] was run?
Its Ki is < 100 nM.

Which Ki does the source give for `CCN1C(=O)N(c2c(F)cc(NCCNC)cc2F)c2cc(F)ccc2-c2cc(Cl)cnc21` [1-130, 4-chloro-10-(2,6-difluoro-4-{[2-(methylamino)ethyl]amino}phenyl)-8-ethyl-13-fluoro-6,8,10-triazatricyclo[9.4.0.0^2,7]pentadeca-1(11),2(7),3,5,12,14-hexaen-9-one] here?
The Ki was < 100 nM.

Which Ki does the source give for `CNCCNc1cc(F)c(N2C(=O)N(C(C)C)c3ncc(F)cc3-c3ccc(Cl)cc32)c(F)c1` [1-105, 13-chloro-10-(2,6-difluoro-4-{[2-(methylamino)ethyl]amino}phenyl)-4-fluoro-8-(propan-2-yl)-6,8,10-triazatricyclo[9.4.0.0^2,7]pentadeca-1(11),2(7),3,5,12,14-hexaen-9-one] here?
The Ki was < 100 nM.
